Paper PMC5444710, “Enhancement of radiosensitivity by the novel anticancer quinolone derivative vosaroxin in preclinical glioblastoma models” (Oncotarget, 2017)

How the values were obtained:
U251 xenografts = assay: Subcutaneous xenograft model: tumor weight and time to progression; assay type: in vivo, female CD1-nu/nu mice; conditions: for HR (95% CI) for tumor progression: U251
Protocol: (§1) Female CD1-nu/nu mice, at 6 weeks of age, were purchased from Charles River (Milan, Italy) under the guidelines established by our institution (University of L’Aquila, Medical School and Science and Technology School Board Regulations, complying with Italian government regulation n.116, January 27, 1992, for the use of laboratory animals). All mice received subcutaneous flank injections (2 each) of 1 × 10^6 U251, U87MG, and T98G cells representing models for MGMT-negative and MGMT-positive cells. Tumor growth was assessed biweekly by measuring tumor diameters with a Vernier caliper (length × width). Tumor weight was calculated according to the formula tumor weight (mg) = tumor volume (mm^3) = d2 × D/2, where d and D are the shortest and longest diameters, respectively. The effects of the treatments were assessed as previously described. At about 10 days after the tumor injection, 30 mice with tumor volumes of 0.5–0.8 cm^3 were randomly divided into 6 groups (5 mice per group with 2 tumors each): (1) control (vehicle); (2) vosaroxin (10 mg/kg every 5 days for 5 weeks intravenous [IV] injection into tail vein; (3) radiotherapy (RT; 4 Gy delivered in a single fraction); (4) vosaroxin in combination with RT; (5) temozolomide (16 mg/kg 5 consecutive days) and (6) temozolomide in combination with RT. Anesthetized tumor-bearing mice received focal irradiation. Irradiation was delivered using an x-ray linear accelerator at a dose rate of 200 cGy/min at room temperature. All mice were shielded with a specially designed lead apparatus to allow irradiation to the right hind limb. At the end of the study (35 days after the start of treatments), animals were sacrificed by carbon dioxide inhalation and tumors were then removed surgically. Half of the tumor was directly frozen in liquid nitrogen for protein analysis and the other half was fixed in paraformaldehyde overnight for immunohistochemical analyses.
(§2) The following parameters were used to quantify the antitumor effects of different treatments as previously described: tumor volume, measured throughout the experiment; tumor weight, measured at the end of the experiment; tumor progression, defined as an increase of greater than 50% of tumor volume with respect to baseline; and time to progression (TTP), defined as the time until tumor progression was observed from baseline. Tumor size was measured with calipers and the TTP of a single tumor was calculated. TTP data were used to generate Kaplan-Meier curves for progression. This method of analysis was described previously, and may reduce both inter-subject variability resulting from differences in engraftment efficacy as well as intra-subject variability in response.
(§3) In vivo drug combination studies were evaluated using CalcuSyn. For CI calculations of dual administration, the values of % cell kill (%CK) for a fixed tumor volume were determined by the log CK (LCK). LCK was calculated as LCK = (T − C) / (3.32 × Td), where Td represented the mean control group doubling time required to reach a fixed tumor volume, expressed in days. T and C were the mean times in days required to reach the same fixed tumor volume in the treated group and the control group, respectively. CK was calculated as %CK = [1 − (1 − 10LCK)] × 100. Tumor growth delay (TGD) was calculated as %TGD = [(T − C) / C] × 100, where T and C were the same values as those reported by Bruzzese et al..

U87MG xenografts = assay: as above; assay type: in vivo, female CD1-nu/nu mice; conditions: for HR (95% CI) for tumor progression: U87MG
Protocol: as §1, §2, §3

GBM cell lines = assay: Clonogenic survival assays (abstract statement); assay type: cell-based; conditions: Homo sapiens
Protocol: For clonogenic survival assays, exponentially growing cells (70% confluence) were cultured in regular media and treated with vosaroxin, at the appropriate concentrations, or vehicle (final dimethyl sulfoxide concentration of 0.1%) for 48 hours. Tumor cells were then irradiated at room temperature with increasing doses of radiation (0–6 Gy) using an x-ray linear accelerator (dose rate of 200 cGy/min). Nonirradiated controls were handled identically to the irradiated cells with the exception of the radiation exposure. […] Colonies containing more than 50 cells were counted. The plating efficiency was calculated as the number of colonies observed divided by the number of cells plated. The surviving fraction was calculated as the number of colonies formed in the treated dishes compared with the number formed in the control. The survival curves were analyzed using SPSS statistical software (Chicago, IL, USA) by means of a fit of the data by a weighted, stratified, linear regression, according to the linear-quadratic formula: S(D)/S(O) = exp-(αD + βD2). The cell survival enhancement ratio was calculated as the ratio of the mean inactivation dose under control conditions divided by the mean inactivation dose after treatment as previously described.

CN[C@H]1CN(c2ccc3c(=O)c(C(=O)O)cn(-c4nccs4)c3n2)C[C@@H]1OC [vosaroxin]
final tumor weight reduction compared with vehicle controls (U251 xenografts; U251 xenografts, day 35, VSR 10 mg/kg q 5 d for 5 wk IV, TMZ 16 mg/kg 5 consecutive days, RT single 4 Gy): 42% | HR (95% CI) for tumor progression (U251 xenografts; VSR vs TMZ + RT): 4.2 (1.4–12.5) | HR (95% CI) for tumor progression (U251 xenografts; VSR vs TMZ): 0.6 (0.3–1.6) | HR (95% CI) for tumor progression (U251 xenografts; VSR vs VSR + RT): 4.0 (1.3–12.1) | final tumor weight reduction compared with vehicle controls (U87MG xenografts; U87MG xenografts, day 35, VSR 10 mg/kg q 5 d for 5 wk IV, TMZ 16 mg/kg 5 consecutive days, RT single 4 Gy): 44% | HR (95% CI) for tumor progression (U87MG xenografts; VSR vs TMZ + RT): 0.8 (0.3–2.0) | HR (95% CI) for tumor progression (U87MG xenografts; VSR vs TMZ): 0.6 (0.2–1.5) | HR (95% CI) for tumor progression (U87MG xenografts; VSR vs VSR + RT): 4.3 (1.2–15.6) | IC50 (GBM cell lines): 10 to 100 nM
